Measured values: patent EP4635944A1, “2-AZABICYCLO[3.1.1]HEPTANE COMPOUND” (Daiichi Sankyo Company, Limited, priority 2022, dated 2024)

How the values were obtained:
human OX2R = molecular target: T1, human OX2R (Homo sapiens, UniProt O43614); test: Evaluation of OX2R agonist activity (intracellular calcium, CHO-K1 cells with forced expression of human OX2R); assay type: cell-based; conditions: CHO-K1 cells expressing human OX2R; 100% = 5 µM of the reference compound; read-out: hOX2R EC50
T1 construct: host or cells: CHO-K1 (Chinese Hamster Ovary K1)
T1 sequence (O43614 1-444): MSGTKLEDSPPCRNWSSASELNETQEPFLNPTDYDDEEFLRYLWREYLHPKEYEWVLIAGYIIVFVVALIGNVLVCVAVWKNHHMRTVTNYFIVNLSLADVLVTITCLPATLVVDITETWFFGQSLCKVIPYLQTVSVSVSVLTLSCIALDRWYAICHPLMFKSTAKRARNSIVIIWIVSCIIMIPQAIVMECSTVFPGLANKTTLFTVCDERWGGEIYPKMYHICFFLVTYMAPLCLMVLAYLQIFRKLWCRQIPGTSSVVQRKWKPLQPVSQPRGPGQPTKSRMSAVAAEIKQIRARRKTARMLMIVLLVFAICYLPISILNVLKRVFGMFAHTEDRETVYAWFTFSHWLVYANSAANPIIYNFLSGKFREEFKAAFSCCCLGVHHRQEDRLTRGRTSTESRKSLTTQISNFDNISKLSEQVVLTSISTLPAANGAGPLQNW
How it was run: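 Cells seeded 7500/well, cultured 24 h, loaded with Fluo 4-AM (2.5 µg/mL final) plus probenecid for 30 min. Calcium response read as 480/540 nm excitation ratio; max–min signal 5–7 s after compound addition, normalized to buffer (0%) and 5 µM reference agonist (100%). EC50 from concentration series; 0.5% DMSO final.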

[1] = Evaluation of ERM production (GSH adduct detection in human liver microsomes); assay type: in vitro ADME; conditions: test compound 500 µM, human liver microsomes 2 mg/mL, GSH/SI-GSH, 37°C for 60 minutes; negative = no metabolite GSH adduct pair peak
Procedure: Evaluation of ERM production from OX2R agonist
The test compound (final concentration was 500 µM, dissolved in DMSO/acetonitrile = 1/9), pooled human liver microsomes (final concentration was 2 mg/mL), L-glutathione reduced (GSH, final concentration was 0.5 mM), potassium phosphate buffer (pH 7.4, final concentration was 100 mM), and stable isotope labeled GSH (SI-GSH, final concentration was 0.5 mM) were admixed and preincubated at 37°C for 3 minutes. Thereafter, a mixed solution of glucose-6-phosphate (final concentration was 25 mM), β-nicotinamide adenine dinucleotide phosphate (final concentration was 0.25 mM), glucose-6-phosphate dehydrogenase (final concentration was 2 U/mL), and magnesium chloride (final concentration was 10 mM) was added, and incubation was performed at 37°C for 60 minutes. After the incubation, the reaction was stopped by adding a 2-fold volume of acetonitrile. A portion of the supernatant after centrifugation (about 1200 × g, 4°C, 15 minutes) was injected into a liquid chromatograph quadrupole time-of-flight mass spectrometer (Q-Tof) for analysis. The mass number of metabolites, GSH adduct and SI-GSH adduct, predicted from the chemical structural formula of the test compound was calculated, and the presence of the corresponding peaks in the measurement sample was checked. Peaks with the same retention time and approximately equal peak area of the detected peaks of the metabolites, GSH adduct and SI-GSH adduct, were extracted as pair peaks. The presence of a pair peak determined to be a metabolite GSH adduct was considered positive for ERM production potential, whereas the absence of such a peak was considered negative for ERM production potential.

[2] = Evaluation of metabolic stability in human liver microsomes; assay type: in vitro ADME
Procedure: Evaluation of metabolic stability of OX2R agonist
The test compound (final concentration was 1 µM, dissolved in DMSO/acetonitrile = 1/99), pooled human liver microsomes (final concentration was 0.5 mg/mL), and sodium phosphate buffer (pH 7.4, final concentration was 100 mM) were admixed and preincubated at 37°C for 15 minutes. Thereafter, a mixed solution of glucose-6-phosphate (final concentration was 10 mM), glucose-6-phosphate dehydrogenase (final concentration was 1 U/mL), and magnesium chloride (final concentration was 3.3 mM) was added and a certain amount of the mixture was collected. Then, an acetonitrile/methanol mixed solution (75/25, v/v) containing a 4.5-fold volume of internal standard substances (final concentrations: phenacetin: 1 ng/mL, niflumic acid: 15 ng/mL, furosemide: 20 ng/mL) was added to stop the reaction (0 min sample). Subsequently, β-nicotinamide adenine dinucleotide phosphate (final concentration was 1 mM) was added, and after 30 minutes of incubation at 37°C, a certain amount of the mixture was collected, to which an acetonitrile/methanol mixed solution (75/25, v/v) containing a 4.5-fold volume of the internal standard substances was added to stop the reaction (30 min sample). For both samples, a portion of the supernatant after centrifugation (about 1200 × g, 4°C, 15 minutes) was injected into a liquid chromatograph tandem quadrupole mass spectrometer (LC-MS/MS) for analysis. The metabolic stability was evaluated by comparing the test compound/internal standard substance ratio of the 30 min sample with the 0 min sample and calculating the residual ratio of the test compound. […]

male C57BL/6J mice = test: Acceleration of locomotor activity (arousal effect in mice); assay type: in vivo; conditions: 10 mg/kg of body weight, orally; cumulative counts for one hour after administration; solvent administration group = 100%
Procedure: Acceleration of locomotor activity
Acceleration of locomotor activity in rodents can be an indicator of arousal. An experiment was carried out on the arousal effect of the test compound in mice, using the acceleration of locomotor activity as the indicator. For the experiment, male C57BL/6J mice (6 weeks old, THE JACKSON LABORATORY JAPAN, INC., 6 to 8 animals per group) were used. Mice were allowed to acclimate for 1 hour or longer in the rearing cage in the room where the measurement was to be performed, until the experiment. After the acclimation, the mice were placed in a locomotor activity measuring apparatus (the behavior analyzer SCANET-40 series, Melquest Ltd.) equipped with an infrared sensor to start the measurement. After 2 hours, either the solvent or the test compound (10 mg/kg of body weight) was orally administered, and the mice were immediately returned to the measuring apparatus and the measurement was further performed for 2 hours. The test compound was suspended in the 0.5 w/v% methylcellulose 400 solution (Wako Pure Chemical Industries, Ltd., Japan). The locomotor activity was counted every 5 minutes, and the cumulative counts for one hour after administration were calculated for each treatment group. The proportion of the locomotor activity of the test compound administration group to the solvent administration group whose locomotor activity was defined as 100% was calculated and shown in Table 2.

[2H][C@](C)(O)C(=O)N1C2CC(C2)[C@H](NS(C)(=O)=O)[C@@H]1Cc1cc(F)cc(-c2ccccc2)c1F [Example 98, N-{(3S,4S)-3-[(2,5-Difluoro[biphenyl]-3-yl)methyl]-2-[(2R)-2-hydroxy(2-^2H)propanoyl]-2-azabicyclo[3.1.1]heptan-4-yl}methanesulfonamide]
EC50 (human OX2R): 36 nM
ERM production potential [1]: negative
metabolic stability compared to the corresponding compounds that were not deuterated ([2]; human liver microsomes, 30 minutes, deuterated at specific positions): improved metabolic stability
Human metabolic stability Residual ratio (%) ([2]; test compound 1 µM, human liver microsomes 0.5 mg/mL, 30 minutes at 37°C): 58%
Locomotor activity (%) (male C57BL/6J mice): 281%
